From patent publication US9073876B2, “Flap modulators” (JANSSEN PHARMACEUTICA NV, priority 2013, dated 2015)
pIC50, pKi: −log10 of the molar value.

Columns and labels:
[1] = tested on: leukotriene pathway in human whole blood (LTB4 levels); assay: Human whole blood assay (LTB4); type: cell-based; details: human whole blood diluted 1:1 in RPMI, stimulated with calcium ionophore A23187; single replicate
Procedure, shortened: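 Heparinised human whole blood, diluted 1:1 in RPMI, was pre-incubated with test compounds for 15 min at 37° Celsius, then stimulated with A23187 (7 μg/mL) for 30 min at 37° Celsius. Plasma LTB4 was measured by immunoassay kit; IC50 from 4-parameter fit; single replicate, at least one healthy donor.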

human FLAP = human FLAP (Homo sapiens (Human), UniProt P20292); assay: FLAP binding assay (HTRF); details: human FLAP-containing membranes, HTRF format; average of two assay plates, duplicates; read-out: FLAP Binding wild type HTRF Ki
human FLAP, sequence (P20292 whole entry): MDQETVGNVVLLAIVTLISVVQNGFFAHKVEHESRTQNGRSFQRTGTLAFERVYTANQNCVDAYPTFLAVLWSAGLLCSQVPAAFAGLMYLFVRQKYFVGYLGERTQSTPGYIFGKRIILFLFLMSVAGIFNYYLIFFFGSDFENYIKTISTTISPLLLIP
Procedure, shortened: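 Reported data take the mean of two different plates carrying duplicate samples and use the HTRF ratio as the measured signal.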

pIC50 [1]	pKi (human FLAP)	Compound
6.56	7.80	NC(=O)c1cccc(COc2c(C3CCC3)ccc(-c3cnc(N)cn3)c2F)c1 [Example 17, 3-{[3-(5-Aminopyrazin-2-yl)-6-cyclobutyl-2-fluorophenoxy]methyl}benzamide]
5.93	6.92	N#Cc1ccccc1COc1c(C2CCC2)ccc(-c2cnc(N)cn2)c1F [Example 18, 2-{[3-(5-Aminopyrazin-2-yl)-6-cyclobutyl-2-fluorophenoxy]methyl}benzonitrile]
6.09	7.00	NC(=O)c1ccccc1COc1c(C2CCC2)ccc(-c2cnc(N)cn2)c1F [Example 19, 2-{[3-(5-Aminopyrazin-2-yl)-6-cyclobutyl-2-fluorophenoxy]methyl}benzamide]
< 5.00	8.30	Nc1cnc(-c2ccc(C3CCC3)c(OCc3ccc(-c4nnn[nH]4)cc3)c2F)cn1 [Example 20, 5-(4-Cyclobutyl-2-fluoro-3-{[4-(1H-tetrazol-5-yl)benzyl]oxy}phenyl)pyrazin-2-amine]
5.38	8.10	Nc1cnc(-c2ccc(C3CCC3)c(OCc3cccc(-c4nnn[nH]4)c3)c2F)cn1 [Example 21, 5-(4-Cyclobutyl-2-fluoro-3-{[3-(1H-tetrazol-5-yl)benzyl]oxy}phenyl)pyrazin-2-amine]
< 5.00	8.22	Nc1cnc(-c2ccc(C3CCC3)c(OCc3ccccc3-c3nnn[nH]3)c2F)cn1 [Example 22, 5-(4-Cyclobutyl-2-fluoro-3-{[2-(1H-tetrazol-5-yl)benzyl]oxy}phenyl)pyrazin-2-amine]
6.44	8.70	Nc1cnc(-c2ccc(C3CCC3)c(OCc3ccc(CC(=O)O)cc3)c2F)cn1 [Example 23, (4-{[3-(5-Aminopyrazin-2-yl)-6-cyclobutyl-2-fluorophenoxy]methyl}phenyl)acetic acid]
< 5.00	7.00	Nc1cnc(-c2ccc(C3CCC3)c(OCc3ccccn3)c2F)cn1 [Example 24, 5-[4-Cyclobutyl-2-fluoro-3-(pyridin-2-ylmethoxy)phenyl]pyrazin-2-amine]
6.24	7.92	CN(C)S(=O)(=O)c1ccc(COc2c(C3CCC3)ccc(-c3cnc(N)cn3)c2F)cc1 [Example 25, 4-{[3-(5-Aminopyrazin-2-yl)-6-cyclobutyl-2-fluorophenoxy]methyl}-N,N-dimethylbenzenesulfonamide]
< 5.00	7.70	Nc1cnc(-c2ccc(C3CCC3)c(OCc3ccc(S(N)(=O)=O)cc3)c2F)cn1 [Example 26, 4-{[3-(5-Aminopyrazin-2-yl)-6-cyclobutyl-2-fluoro-phenoxy]methyl}benzenesulfonamide]
6.09	8.22	CNS(=O)(=O)c1ccc(COc2c(C3CCC3)ccc(-c3cnc(N)cn3)c2F)cc1 [Example 27, 4-{[3-(5-Aminopyrazin-2-yl)-6-cyclobutyl-2-fluorophenoxy]methyl}-N-methylbenzenesulfonamide]
5.97	6.65	Nc1cnc(-c2ccc(C3CCC3)c(OCc3cccc(F)c3)c2F)cn1 [Example 29, 5-{4-Cyclobutyl-2-fluoro-3-[(3-fluorobenzyl)oxy]phenyl}pyrazin-2-amine]
5.71	6.77	Nc1cnc(-c2ccc(C3CCC3)c(OCc3c(F)cccc3F)c2F)cn1 [Example 31, 5-{4-Cyclobutyl-3-[(2,6-difluorobenzyl)oxy]-2-fluorophenyl}pyrazin-2-amine]
5.80	6.52	Nc1cnc(-c2ccc(C3CCC3)c(OCc3ccccc3Cl)c2F)cn1 [Example 34, 5-{3-[(2-Chlorobenzyl)oxy]-4-cyclobutyl-2-fluorophenyl}pyrazin-2-amine]
5.94	6.76	Nc1cnc(-c2ccc(C3CCC3)c(OCc3cccc(Cl)c3)c2F)cn1 [Example 35, 5-{3-[(3-Chlorobenzyl)oxy]-4-cyclobutyl-2-fluorophenyl}pyrazin-2-amine]
5.59	6.66	Nc1cnc(-c2ccc(C3CCC3)c(OCc3ccc(Cl)cc3)c2F)cn1 [Example 36, 5-{3-[(4-Chlorobenzyl)oxy]-4-cyclobutyl-2-fluorophenyl}pyrazin-2-amine]
5.60	6.60	Nc1cnc(-c2ccc(C3CCC3)c(OCc3c(Cl)cccc3Cl)c2F)cn1 [Example 37, 5-{4-Cyclobutyl-3-[(2,6-dichlorobenzyl)oxy]-2-fluorophenyl}pyrazin-2-amine]
5.87	6.60	Cc1ccc(COc2c(C3CCC3)ccc(-c3cnc(N)cn3)c2F)cc1C [Example 41, 5-{4-Cyclobutyl-3-[(3,4-dimethylbenzyl)oxy]-2-fluorophenyl}pyrazin-2-amine]
6.14	6.71	Nc1cnc(-c2ccc(C3CCC3)c(OCc3cc(F)ccc3Cl)c2F)cn1 [Example 45, 5-{3-[(2-Chloro-5-fluorobenzyl)oxy]-4-cyclobutyl-2-fluorophenyl}pyrazin-2-amine]

pIC50 [1]	pKi (human FLAP)	Compound
5.25	8.10	Nc1cnc(-c2ccc(C3CCC3)c(OCc3ccccc3C(=O)O)c2F)cn1 [Example 46, 2-{[3-(5-Aminopyrazin-2-yl)-6-cyclobutyl-2-fluorophenoxy]methyl}benzoic acid]
6.52	7.38	Cn1ccc(COc2c(C3CCC3)ccc(-c3cnc(N)cn3)c2F)n1 [Example 47, 5-{4-Cyclobutyl-2-fluoro-3-[(1-methyl-1H-pyrazol-3-yl)methoxy]phenyl}pyrazin-2-amine]
7.13	7.52	Cc1ccnc(Oc2c(C3CCC3)ccc(-c3cnc(N)cn3)c2F)n1 [Example 69, 5-{4-cyclobutyl-2-fluoro-3-[(4-methylpyrimidin-2-yl)oxy]phenyl}pyrazin-2-amine]
6.13	7.74	Nc1cnc(-c2ccc(C3CCC3)c(OCC3CC3)c2F)cn1 [Example 72, 5-[4-Cyclobutyl-3-(cyclopropylmethoxy)-2-fluorophenyl]pyrazin-2-amine]
5.75	6.60	COc1ccc(S(F)(F)(F)(F)F)cc1COc1c(C2CCC2)ccc(-c2cnc(N)cn2)c1F [Example 76, 5-(4-Cyclobutyl-2-fluoro-3-{[2-methoxy-5-(pentafluoro-lambda~6~- sulfanyl)benzyl]oxy}phenyl)pyrazin-2-amine]
5.89	6.76	Nc1cnc(-c2ccc(C3CCC3)c(OCc3ccc(S(F)(F)(F)(F)F)cc3F)c2F)cn1 [Example 78, 5-(4-Cyclobutyl-2-fluoro-3-{[2-fluoro-4-(pentafluoro-lambda~6~- sulfanyl)benzyl]oxy}phenyl)pyrazin-2-amine]
5.65	6.60	Nc1cnc(-c2ccc(C3CCC3)c(OCc3ccc(S(F)(F)(F)(F)F)cc3)c2F)cn1 [Example 79, 5-(4-Cyclobutyl-2-fluoro-3-{[4-(pentafluoro-lambda~6~- sulfanyl)benzyl]oxy}phenyl)pyrazin-2-amine]
5.48	6.52	Nc1cnc(-c2ccc(C3CCC3)c(OCc3cccc(S(F)(F)(F)(F)F)c3)c2F)cn1 [Example 80, 5-(4-Cyclobutyl-2-fluoro-3-{[3-(pentafluoro-lambda~6~- sulfanyl)benzyl]oxy}phenyl)pyrazin-2-amine]
6.22	7.43	Nc1cnc(-c2ccc(C3CCC3)c(OCc3ccccc3)c2F)cn1 [Example 83, 5-[3-(Benzyloxy)-4-cyclobutyl-2-fluorophenyl]-pyrazin-2-amine]
6.05	7.15	Nc1cnc(-c2ccc(C3CCC3)c(OCCc3ccc(C(=O)O)cc3)c2F)cn1 [Example 84, 4-{2-[3-(5-Aminopyrazin-2-yl)-6-cyclobutyl-2-fluorophenoxy]ethyl}benzoic acid]
7.45	8.30	Cc1cc(N)nc(Oc2c(C3CCC3)ccc(-c3cnc(N)cn3)c2F)n1 [Example 86, 2-[3-(5-Aminopyrazin-2-yl)-6-cyclobutyl-2-fluorophenoxy]-6-methylpyrimidin-4-amine]
8.17	9.00	Nc1cnc(-c2ccc(C3CCC3)c(Oc3nccc(-c4ccccc4)n3)c2F)cn1 [Example 87, 5-{4-Cyclobutyl-2-fluoro-3-[(4-phenylpyrimidin-2-yl)oxy]phenyl}pyrazin-2-amine]
7.44	8.40	CSc1ccnc(Oc2c(C3CCC3)ccc(-c3cnc(N)cn3)c2F)n1 [Example 88, 5-(4-Cyclobutyl-2-fluoro-3-{[4-(methylsulfanyl)pyrimidin-2-yl]oxy}phenyl)pyrazin-2-amine]
7.65	8.40	Cc1cc(C)nc(Oc2c(C3CCC3)ccc(-c3cnc(N)cn3)c2F)n1 [Example 89, 5-{4-Cyclobutyl-3-[(4,6-dimethylpyrimidin-2-yl)oxy]-2-fluorophenyl}pyrazin-2-amine]
8.32	9.00	Nc1cnc(-c2ccc(C3CCC3)c(Oc3nccc(-c4cccs4)n3)c2F)cn1 [Example 91, 5-{4-Cyclobutyl-2-fluoro-3-[(4-thiophen-2-ylpyrimidin-2-yl)oxy]phenyl}pyrazin-2-amine]
7.51	8.52	COc1ccnc(Oc2c(C3CCC3)ccc(-c3cnc(N)cn3)c2F)n1 [Example 93, 5-{4-Cyclobutyl-2-fluoro-3-[(4-methoxypyrimidin-2-yl)oxy]phenyl}pyrazin-2-amine]
7.00	7.57	COc1cnc(Oc2c(C3CCC3)ccc(-c3cnc(N)cn3)c2F)nc1 [Example 94, 5-{4-Cyclobutyl-2-fluoro-3-[(5-methoxypyrimidin-2-yl)oxy]phenyl}pyrazin-2-amine]
< 6.00	8.30	CS(=O)(=O)c1ccnc(Oc2c(C3CCC3)ccc(-c3cnc(N)cn3)c2F)n1 [Example 95, 5-(4-Cyclobutyl-2-fluoro-3-{[4-(methylsulfonyl)pyrimidin-2-yl]oxy}phenyl)pyrazin-2-amine]
